Drawing on ChEMBL document CHEMBL1132838, “Determination of the relative and absolute stereochemistry of a potent and alpha1A-selective adrenoceptor antagonist” (Bioorg Med Chem Lett, 2000), this text covers Ki for three compounds.

Each structure is given as a SMILES string.

The target of experiment [1] is T1, Alpha-1D adrenergic receptor (Homo sapiens, UniProt P25100).
T1 sequence (P25100 whole entry): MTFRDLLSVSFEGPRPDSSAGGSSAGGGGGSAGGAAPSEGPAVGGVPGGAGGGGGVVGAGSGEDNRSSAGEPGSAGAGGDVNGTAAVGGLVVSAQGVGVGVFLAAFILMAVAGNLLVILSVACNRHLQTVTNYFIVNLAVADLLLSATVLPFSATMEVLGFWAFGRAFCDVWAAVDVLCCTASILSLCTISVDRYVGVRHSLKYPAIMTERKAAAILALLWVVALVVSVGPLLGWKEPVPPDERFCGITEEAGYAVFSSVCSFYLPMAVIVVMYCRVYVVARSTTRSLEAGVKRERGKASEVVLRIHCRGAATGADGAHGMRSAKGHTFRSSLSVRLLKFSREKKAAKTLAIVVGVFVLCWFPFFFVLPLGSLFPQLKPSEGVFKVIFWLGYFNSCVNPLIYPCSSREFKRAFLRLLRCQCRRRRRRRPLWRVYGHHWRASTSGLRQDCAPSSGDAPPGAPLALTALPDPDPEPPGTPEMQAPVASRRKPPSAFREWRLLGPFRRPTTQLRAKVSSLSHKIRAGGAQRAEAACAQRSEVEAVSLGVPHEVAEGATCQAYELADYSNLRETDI
In words: Tested for binding affinity against recombinant human Alpha-1D adrenergic receptor using [125I]-HEAT in competition binding assay.

Experiment [2] has as its target T2, Alpha-1B adrenergic receptor (Homo sapiens, UniProt P35368).
T2 sequence (P35368 whole entry): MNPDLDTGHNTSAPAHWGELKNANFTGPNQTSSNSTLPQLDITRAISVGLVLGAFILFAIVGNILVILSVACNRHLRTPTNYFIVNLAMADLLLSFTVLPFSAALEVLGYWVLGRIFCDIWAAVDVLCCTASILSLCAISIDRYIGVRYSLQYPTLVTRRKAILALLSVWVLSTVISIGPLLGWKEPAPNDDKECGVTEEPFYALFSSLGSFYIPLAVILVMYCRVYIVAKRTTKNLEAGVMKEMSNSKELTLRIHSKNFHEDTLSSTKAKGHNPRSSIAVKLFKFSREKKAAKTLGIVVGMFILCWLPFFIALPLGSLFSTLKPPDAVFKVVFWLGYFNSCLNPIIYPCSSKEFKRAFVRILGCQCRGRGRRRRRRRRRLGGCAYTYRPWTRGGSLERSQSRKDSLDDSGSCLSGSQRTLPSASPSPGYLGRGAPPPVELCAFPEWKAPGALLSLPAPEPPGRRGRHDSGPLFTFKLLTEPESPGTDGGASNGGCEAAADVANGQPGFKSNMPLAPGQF
As to the kind of experiment: Tested for binding affinity against recombinant human Alpha-1B adrenergic receptor using [125I]HEAT in competition binding assay.

As a reminder, the Ki is a measure of affinity in units of concentration, obtained from inhibition or displacement. Turning to `C[C@H]1OC(=O)N(C(=O)NCCCN2CCC(c3ccc(F)cc3)CC2)[C@@H]1c1ccc(F)c(F)c1`, the inhibition constant (Ki) is 193 nM in experiment [1] and 74 nM in experiment [2].
`C[C@@H]1OC(=O)N(C(=O)NCCCN2CCC(c3ccc(F)cc3)CC2)[C@@H]1c1ccc(F)c(F)c1`: in experiment [2], the Ki is 76 nM.
As to `C[C@H]1OC(=O)N(C(=O)NCCCN2CCC(c3ccc(F)cc3)CC2)[C@H]1c1ccc(F)c(F)c1`, the values for the Ki in experiment [1] and in experiment [2] were 92 nM and 48 nM, respectively.
